Patent US7781420B2, “Use of clodronic acid for treatment podotrochlosis” (Omnimedic GbR, priority 2005, dated 2010)

How the values were obtained:
[1] = test system: horses who suffer from podotrochlosis; assay: treatment of podotrochlosis with associated osteoporosis in horses by two to five intramuscular injections; format: in vivo, horse; settings: for therapeutic success in the treatment of podotrochlosis with associated osteoporosis: intramuscular injections
Procedure: To achieve the desired therapeutic success or else prophylactic success, a dosage regimen in which the pharmaceutical is administered by two to five intramuscular injections within a period of up to several days, such as approximately 3 consecutive days, but preferably within one day, must be adhered to. Here, the administration of the pharmaceutical may be effected in a dosage of, per injection, 0.125-2.5 mg, preferably 0.25-1 mg, particularly preferably approximately 0.6 mg of active ingredient/kg body weight. For a horse with a weight of 500 kg, a total dose of 250-2500 mg, preferably 400-1500 mg, especially preferably approximately 800 to 1000 mg of active ingredient, distributed over 2 to 5 injections, preferably 3 injections, is aimed at. With a horse with a weight of 500 kg, it is therefore especially preferable to administer 900 mg of active ingredient, divided over 3 injections of 300 mg each, within one day. The pharmaceutical is injected intramuscularly, preferably into the neck, chest and gluteal muscles of the horse. In the case of 3 injections, it is preferred to administer two injections into the neck muscles (on the left and right side), especially preferably approximately one hand's width under the crest and approximately one hand's width above the scapula, and one injection into the breast muscles. The 2 to 5 injections are expediently given directly one after the other.
After approximately 14 days, a pronounced improvement of the clinical symptoms is observed in nearly all horses. After approximately 4-6 weeks, the clinical picture has stabilized and established such that the therapeutic success can be defined. After approximately 10 to 14 months, the clinical symptoms will, as a rule, deteriorate. The treatment may then be repeated once or more than once, with equally good success. In this manner, the treated horses can be kept free from lameness over several years.
For example, the therapeutic success in a gelding who had suffered from podotrochlosis and who had not been able to be ridden, let alone used as a sports horses for about 3 years was so good after employing the pharmaceutical described in accordance with the invention that the gelding could afterwards be used intensively and successfully for 6 years as a showjumper.

podotrochlosis = settings: in vivo; cited from earlier work

Structure (SMILES)	side effects ([1]; at least 350 horses pretreated with conventional therapies without success)	time until pronounced improvement of the clinical symptoms is observed in nearly all horses ([1]; horses, after treatment)	time until the clinical picture has stabilized and established ([1]; horses, after treatment)	therapeutic success in the treatment of podotrochlosis with associated osteoporosis ([1]; horses)	therapeutic success in the treatment of podotrochlosis with associated osteoporosis ([1]; horses, listed as pharmaceutical described in accordance with the invention)	freedom from lameness ([1]; many of the treated horses, regular use of the pharmaceutical)	time used intensively and successfully as a showjumper after treatment ([1]; single gelding, not able to be ridden for about 3 years before treatment) [years]	effect on podotrochlosis (podotrochlosis)	side effects (podotrochlosis)
O=P(O)(O)C(Cl)(Cl)P(=O)(O)O [clodronic acid, (dichloromethylene)bis(phosphonic acid)]	without suffering side effects	approximately 14 days	4-6 weeks	outstanding therapeutic successes	successful therapy	free from lameness for several years	6	–	–
O=P(O)(O)C(Sc1ccc(Cl)cc1)P(=O)(O)O [tiludronate]	–	–	–	–	–	–	–	healing effect	substantial side effects such as colic
